In brackets after ≈: the same amount, converted by molar mass.
Tests used:
[1] = tested on: murine P388 lymphocytic leukemia (PS cell line); assay: inhibition of growth of PS tumor cells in culture (ED50); assay type: cell-based; details: for IC50: Mus musculus
Text: (§1) The isolation and purification methods chosen can be monitored at each step by performing in vitro and/or in vivo antitumor tests as described by R. I. Geran, N. H. Greenberg, M. M. MacDonald, A. M. Schumacher and B. S. Abbot in Cancer Chemother. Rep. Part 3, Vol. 3 (2): 1-103 (1972); and by Schmidt, J. M.; Pettit, G. R. in Experimentia, 34: 659-660 (1978). Such tests include the determination of the concentration of active material rquired to inhibit the growth of tumor cells in culture, (e.g., the concentration required to inhibit growth by 50 percent or the ED50) and of the dose of active material required to prolong the life of mice bearing transplanted tumors.

P 388 (PS) mouse tumor = P 388 (PS) mouse tumor test, life extension in vivo
Text: The dried methylene chloride extracts (derived from the shipping solution and from extraction of the chopped animals) were further separated by taking small portions and subjecting each to solvent partitioning beginning with methanol:water (9:1)/hexane (4 times). […] The aqueous mthanol layers were further diluted with water to a ratio of 8:2 and were extracted repeatedly with carbon tetrachloride (9 times). The carbon tetrachloride extracts were dried and assayed for antitumor activity.
as §1

Question: Which results are given for `COC(=O)C=C1CC2/C=C/C(C)(C)C3(O)OC(C/C(=C\C(=O)OC)C3OC(C)=O)C[C@H]([C@@H](C)O)OC(=O)C[C@H](O)C[C@@H]3C[C@H](OC(=O)CC(C)C)C(C)(C)[C@](O)(C[C@H](C1)O2)O3` (some centres unmarked) [Bryostatin 5]?
Answer: IC50 ([1]; P388, PS cell line): 0.26 to 1.3 ng/mL (≈ 0.3 to 1.5 nM); in vivo life extension (P 388 (PS) mouse tumor; at 185 μg/kg): 88%

Question: `CCCC(=O)OC1/C(=C/C(=O)OC)CC2C[C@H]([C@@H](C)O)OC(=O)C[C@H](O)C[C@@H]3C[C@H](OC(=O)CC(C)C)C(C)(C)[C@](O)(C[C@@H]4CC(=CC(=O)OC)CC(/C=C/C(C)(C)C1(O)O2)O4)O3` (some centres unmarked) [Bryostatin 4] was tested. Which “increase in life extension” value (P 388 (PS) mouse tumor; at 46 μg/kg) did it give?
Answer: 62%

Question: What does the source list for `COC(=O)C=C1CC2/C=C/C(C)(C)C3(O)OC(C/C(=C\C(=O)OC)C3OC(C)=O)C[C@H]([C@@H](C)O)OC(=O)C[C@H](O)C[C@@H]3C[C@H](OC(C)=O)C(C)(C)[C@](O)(C[C@H](C1)O2)O3` (some centres unmarked) [Bryostatin 7]?
Answer: IC50 ([1]; P388, PS cell line): 0.026 ng/mL (≈ 0.0315 nM); in vivo life extension (P 388 (PS) mouse tumor; at 92 μg/kg): 77%

Question: `CCCC(=O)OC1/C(=C/C(=O)OC)CC2C[C@H]([C@@H](C)O)OC(=O)C[C@H](O)C[C@@H]3C[C@H](OC(=O)CCC)C(C)(C)[C@](O)(C[C@@H]4CC(=CC(=O)OC)CC(/C=C/C(C)(C)C1(O)O2)O4)O3` (some centres unmarked) [Bryostatin 8] was tested. Which IC50 ([1]; murine P388 lymphocytic leukemia assay (PS cell line), unit inferred) did it give?
Answer: 1.3 ng/mL (≈ 1.48 nM)

Question: Which results are given for `CCCC(=O)O[C@H]1C[C@H]2C[C@@H](O)CC(=O)O[C@@H]([C@@H](C)O)C[C@@H]3C/C(=C\C(=O)OC)[C@H](OC(C)=O)[C@@](O)(O3)C(C)(C)/C=C/[C@H]3C/C(=C\C(=O)OC)C[C@@H](C[C@](O)(O2)C1(C)C)O3` [Bryostatin 6]?
Answer: ED50 ([1]; PS cell line): 3 ng/mL (≈ 3.52 nM); in vivo life extension (P 388 (PS) mouse tumor; at 185 μg/kg): 82%
